According to patent US20230028880A1, “CD38-BINDING AGENTS AND USES THEREOF” (Biohaven Therapeutics Ltd., priority 2019, published 2023):
pEC50: −log10 of the molar value. “And” between values parts separate entries of the source, which are not always exact repeats. Identical values can stand only once. “Also recorded” adds a separate entry of the source.

Legend:
[1] = system: Daudi cells; assay: Ternary binding assay: recruitment of PE-labeled human IgG1k to Daudi cells (flow cytometry, MFI); format: cell-based; settings: duplicate columns
Description: Various technologies can be utilized to assess and/or characterize recruitment of antibodies to target cells, e.g., cancer cells. One such assay is a ternary binding assay. An exemplary protocol is described herein. Compounds were diluted in DMSO (MP 191418) to 1000× the starting concentration used in the assay into a 96 well polypropylene plate (Corning 3357). They were then serially diluted in ½ log increments to generate 8-12 concentrations in DMSO (assay dependent). These DMSO stocks were then step diluted 1/100 into PBS (VWR Cat. #20012043). Step diluted compound range was then added into the polypropylene assay plate 1/10 the volume of the assay volume. Daudi (ATCC CCL-213), a non-adherent cell line, were counted and centrifuged and resuspended at a concentration of 100,000 cells per 90 ul in Flow buffer: 1% BSA (American Bio AB01088-00100); 0.5 mM EDTA (VWR 45001-122); PBS (VWR Cat. #20012043) with 11.1 ug/mL human IgG1k Phycoerythrin labeled (SouthernBiotech #0151K-09 PE). The cells were then added into the polypropylene plate with the step diluted compounds and incubated at 37° C. for 30 min. At the end of the incubation, the cells were centrifuged and washed 2× with How buffer containing 0.5% Tween 20 (BP337-500). Samples were analyzed on a BD FacsCelesta. Mean fluorescence was analyzed using Graphpad Prism and curves were fit using log(inhibitor) vs. response—Variable slope (four parameters).

[2] = system: Effector cells (ADCC reporter cells) with Daudi cells; assay: ADCC reporter assay: Daudi cells, IVIG and ADCC reporter effector cells (luciferase, RLU); format: cell-based; settings: IVIG; for Luminescence, ADCC reporter assay: duplicate columns
Description: Daudi (ATCC CCL-213) cells were resuspended in Opti-MEM (Thermo Fisher Scientific #31985070), counted (Life Technologies Countless II cell counter) and plated (5,000 cells in 25 uL/well; Corning plates: 3917). Compounds w diluted in DMSO (MP 191418) to 1000× the starting concentration used in the assay into a 96 well polypropylene plate (Corning 3357). They were then serially diluted in ½ log increments to generate 8 concentrations in DMSO (assay dependent). These DMSO stocks were then step diluted 1/250 into Opti-MEM. Step diluted compound range was then added into the polypropylene assay plate 25 uL/well. The human antibody solution (Grifols IVIG Fleogogamma #61953-0005-2) was diluted to 40 ug/mL and added 25 uL/well. Effector cells (ADCC reporter cells—Promega kit: G7018) were added 37,500 in 25 uL/well. The assay was then incubated 18 h at 37° C. Following the induction period, the plate was equilibrated to 25° C. followed the addition of the luciferase substrate (75 uL/well, 1 vial in 10 mL of Bio-Glo assay buffer, Promega kit: G7018). The luminescence was measured (Biotek Synergy H1 microplate reader).

[3] = system: Daudi cells; assay: KILR ADCC killing assay: KILR-transfected Daudi cells with purified NK cells (% dead cells); format: cell-based; settings: for % dead cells, KILR ADCC killing assay: KILR Daudi cells with purified NK cells, duplicate columns
Excerpt: In some embodiments, CD38-ABT ARMs bind to target cells and antibodies, e.g., human antibodies. In some embodiments, such ternary structures present antibodies to effector cells such as NK cell and bind to, e.g., CD16a receptors. […] Daudi cells were transfected with KILR reporter construct (DiscoverX #97-0002). An attenuated lentivirus was designed to deliver a Moloney Murine Leukemia Virus (MMLV) engineered to drive expression of a housekeeping gene tagged with Enhanced ProLabel (ePL) a beta-Galactosidase (beta-gal) reporter fragment. This construct was designed to remain inside cells. Death leads to the release of the KILR reporter protein into the medium. Detection reagent (DiscoverX #97-0001L) contained the complementing beta-gal reporter fragment enzyme acceptor (EA). The two components combined to generate a chemiluminescent signal.

[4] = system: NK cells; assay: Depletion of CD38-expressing effector cells: purified NK cells, 18 h, Zombie viability dye; format: cell-based, human; settings: I-9 300 nM-10 nM, Daratumumab 3 ug/mL-0.1 ug/mL, IvIG 10 ug/mL, 18 h (FIG. 4)
Excerpt: In some embodiments, provided technologies provides various advantages compared to existing CD38-based technologies, e.g., those using CD38 antibodies. […] As appreciated by those skilled in the art, various technologies can be utilized to assess depleting of CD38-expressing effector cells. In one example, NK cells were purified from frozen stock using 3×10^7 PBMC preparations ([…] technologies) using EasySep™ Human NK cell Isolation Kit […] Technologies (cat #17955) according to manufacturer's instructions. NK cells were plated at the density of 2×10^6 cells per mL of OPTIMEM media, in a 100 uL volume per well of round bottom 96 well plates. Daratumumab was added to a final concentration range of 3 ug/mL to 0.1 ug/mL. […] IvIG was used at a final concentration of 10 ug/mL. Cells were mixed by pipetting up and down and incubated for 18 h at 37° C. At the end of the incubation period, cells were centrifuged at 400 g for 5 min and re-suspended in PBS. Following this, cells were stained with 1 uM Zombie viability dye (Biolegend, catalog #423111) according to manufacturer's instructions and incubated for 15 minutes at room temperature. […] Cells were analyzed on BD FACSCelesta flow cytometer (BD Biosciences). […] Percentages of Zombie green positive NK cells were analyzed and graphed using GraphPad Prism software.

In the case of CCCCC[C@@H]1NC(=O)[C@H](CCCNC(=N)N)NC(=O)[C@H](C)NC(=O)CSC[C@@H](C(=O)NCCOCCOCCOCCOCCOCCOCCn2nnc3c2CCC2C(CC3)C2COC(=O)N2CCC(C(=O)NCC(=O)N[C@H](CCC(=O)N[C@H](CCC(=O)N[C@H](CCC(=O)NCCCCCCCCCCCC(=O)O)C(=O)N[C@H](CCC(=O)N[C@H](CCC(=O)NCC(=O)NCC(=O)N[C@@H](CC(=O)O)C(=O)N[C@H]3CSSC[C@@H](C(=O)N[C@H](C(=O)O)[C@@H](C)O)NC(=O)[C@H](Cc4c[nH]c5ccccc45)NC(=O)[C@H](C(C)C)NC(=O)[C@H](CC(C)C)NC(=O)[C@H](CCC(=O)O)NC(=O)CNC(=O)[C@H](CC(C)C)NC(=O)[C@H](Cc4c[nH]cn4)NC(=O)[C@H](Cc4c[nH]c5ccccc45)NC(=O)[C@H](C)NC3=O)C(=O)O)C(=O)O)C(=O)O)C(=O)O)CC2)NC(=O)[C@H](CC(=O)O)NC(=O)[C@H](CCCCC)NC(=O)[C@H](Cc2ccc(-c3ccccc3)cc2)NC(=O)[C@H](CC(C)C)NC(=O)[C@H](C(C)C)NC(=O)CNC(=O)[C@H](CC(=O)O)NC(=O)[C@H](Cc2c[nH]cn2)NC(=O)[C@H](Cc2ccc(O)cc2)NC1=O (stereo partly shown) [I-9], the “MFI, recruitment of PE-labeled human IgG1k to Daudi cells” value (“MFI, recruitment” below) ([1]; compound 0.03 nM) was 2297 and 2037, the “MFI, recruitment” value ([1]; compound 0.1 nM) was 2514 and 2495 and the “MFI, recruitment” value ([1]; compound 0.3 nM) was 2861 and 2727. For the same compound, the “MFI, recruitment” value ([1]; compound 1 nM) was 3063 and 2925, the “MFI, recruitment” value ([1]; compound 3 nM) was 4268 and 4210 and the “MFI, recruitment” value ([1]; compound 10 nM) was 7133 and 6933. The “MFI, recruitment” value ([1]; compound 30 nM) was 10630 and 8384, the “MFI, recruitment” value ([1]; compound 100 nM) was 9899 and 10608 and the “MFI, recruitment” value ([1]; compound 300 nM) was 7835 and 7873. The “MFI, recruitment” value ([1]; compound 1000 nM) was 4929 and 5108, the “MFI, recruitment” value ([1]; compound 3000 nM) was 4383 and 4301 and the pEC50 ([2]; ADCC reporter assay) was 8.26. For the same compound, the EC70 ([2]; ADCC reporter cells, 18 h, one set of experiment (FIG. 2)) was “about 0.92 nM”, the “Luminescence, ADCC reporter assay” value ([2]; compound 0.3 nM, 18 h) was 18458 RLU and 20362 RLU and the “Luminescence, ADCC reporter assay” value ([2]; compound 1 nM, 18 h) was 20777 RLU and 20342 RLU. For the same compound, the “Luminescence, ADCC reporter assay” value ([2]; compound 3 nM, 18 h) was 24006 RLU and 24206 RLU, the “Luminescence, ADCC reporter assay” value ([2]; compound 10 nM, 18 h) was 35274 RLU and 44761 RLU and the “Luminescence, ADCC reporter assay” value ([2]; compound 30 nM, 18 h) was 55170 RLU and 59273 RLU. The “Luminescence, ADCC reporter assay” value ([2]; compound 100 nM, 18 h) was 60746 RLU and 68867 RLU, the “Luminescence, ADCC reporter assay” value ([2]; compound 300 nM, 18 h) was 55313 RLU and 76306 RLU and the “Luminescence, ADCC reporter assay” value ([2]; compound 1000 nM, 18 h) was 51790 RLU and 65856 RLU. For the same compound, the pEC50 ([3]; KILR Daudi cells, purified NK cells, one set of experiments (FIG. 3)) was 8.17, the “% dead cells, KILR ADCC killing assay” value ([3]; compound 0.3 nM) was 5.1% and 5.5% and the “% dead cells, KILR ADCC killing assay” value ([3]; compound 1 nM) was 4.8% and 4.7%. The “% dead cells, KILR ADCC killing assay” value ([3]; compound 3 nM) was 5%, the “% dead cells, KILR ADCC killing assay” value ([3]; compound 10 nM) was 5.3% and 5.7% and the “% dead cells, KILR ADCC killing assay” value ([3]; compound 30 nM) was 6.1% and 6.9%. For the same compound, the “% dead cells, KILR ADCC killing assay” value ([3]; compound 100 nM) was 6.6% and 7.4%, the “% dead cells, KILR ADCC killing assay” value ([3]; compound 300 nM) was 7.3% and 8.1% and the “% dead cells, KILR ADCC killing assay” value ([3]; compound 1000 nM) was 6.8% and 6.7%. The “Depletion of CD38-expressing effector cells (NK cells)” value [4] was “did not deplete CD38-expressing effector cells; also recorded: do not significantly deplete effector cells”.
